Source: patent US4720486A, “Method of inhibiting vertebrate collagenase activity using peptide hydroxamic acid derivatives” (Monsanto Company, priority 1987, dated 1988)
Where a SMILES comes first, the peptide text is derived from it. The star is where a group is joined. Cbz = O=C(OCc1ccccc1)*; NHOH = ON*

Assays:
Type in all cases: biochemical
[1] = target: T1, human synovial collagenase (Homo sapiens, UniProt P03956); assay: Collagenase inhibition test (14C-collagen assay), synovial collagenase; settings: for Ki: 0.50 M NaCl, 0.01 M CaCl2, 0.05 M Tris, pH 7.5, 35° C., Dixon plot, single substrate concentration 10 μM collagen
T1 construct: endogenous in cells; host or cells: primary human synovial cells from a knee synovectomy, stimulated with SK Hepatoma conditioned medium
T1 sequence (P03956 100-469): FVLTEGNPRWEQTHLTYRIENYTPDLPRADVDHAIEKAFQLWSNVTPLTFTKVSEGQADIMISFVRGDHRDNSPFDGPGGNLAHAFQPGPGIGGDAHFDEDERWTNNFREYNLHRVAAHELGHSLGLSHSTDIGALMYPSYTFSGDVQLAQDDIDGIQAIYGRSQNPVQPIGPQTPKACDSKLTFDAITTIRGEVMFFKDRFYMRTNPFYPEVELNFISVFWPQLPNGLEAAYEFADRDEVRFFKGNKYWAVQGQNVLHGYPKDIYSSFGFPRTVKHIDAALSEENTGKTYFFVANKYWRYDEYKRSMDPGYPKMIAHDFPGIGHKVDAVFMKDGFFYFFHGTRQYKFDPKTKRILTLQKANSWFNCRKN
Protocol: (§1) ^14 C-collagen was prepared by reductive methylation of calf skin collagen at 4° C. using ^14 C-formaldehyde and sodium borohydride. Calf skin collagen (Sigma) was dissolved at 7.5 mg/ml in 60 ml of 0.10M acetic acid and dialyzed at 4° C. against 0.15M potassium phosphate, pH 7.6, for eight hours followed by dialysis overnight against 0.4M NaCl. The collagen solution was then adjusted to pH 9.0 by addition of 0.50M sodium borate and then 1 mCi of ^14 C-formaldehyde (10 mCi/mmol) was added. After one minute, 0.10M sodium borohydride (660 μl in 1.3 mM NaOH) was added in four aliquots, followed by an additional aliquot (340 μl) 30 minutes later. The solution was then dialyzed exhaustively against 0.01M acetic acid, centrifuged to remove particulates and stored frozen in 1 ml aliquots. Specific activity was 1.3×10^6 DPM/mg. Unlabeled collagen was prepared in the same way, stored frozen and mixed with labeled collagen at a ratio of 9 to 1. For assay, the diluted ^14 C-collagen was dialyzed 6-8 hours at 4° C. against 0.15M potassium phosphate, pH 7.6, followed by dialysis overnight against 0.4M sodium chloride. This solution was centrifuged to remove any undissolved collagen and stored at 4° C.
(§2) Collagenase asays were carried out according to the method of Terato et al., Biochim. Biophys. Acta 445, 753 (1976). They were performed in 1.5 ml polypropylene microfuge tubes. Each assay tube contained 50 μl of ^14 C-collagen solution (4 mg/ml) and 50 μl of 1.0M glucose, 0.10M Tris, 0.4M NaCl, 0.02M CaCl2, pH 7.5. This solution was incubated for ten minutes at 35° C. and the reaction initiated by the addition of 100 μl of enzyme solution. Those samples containing procollagenase were first activated by incubating 100 μl aliquots with 1-5 μl of 10 mg/ml trypsin (in 1 mM HCl) for 20 minutes at 23° C., followed by 20 μl of 5 mg/ml soybean trypsin inhibitor (in 0.05M Tris, 0.01M CaCl2, pH 7.5) to quench the trypsin activity. The collagenase assay was terminated after 30 minutes at 35° C. by the addition of 20 μl of 0.08M 1,10-phenanthroline in 50% (v/v) dioxane and the incubation was continued for one hour at 35° C. to denature the collagen digestion products. Each sample was cooled for 15 minutes at 23° and 200 μl of dioxane was added with vigorous vortexing to precipitate uncleaved collagen. Following centrifugation at 11,000 RPM, 350 μl aliquots were added to 5.0 ml of Pico-Fluor 30 to determine radioactivity.
(§3) Collagenase activities were measured in the presence of the test compounds by adding an aliquot of the compound (0-85 μl) and buffer to 100 μl of glucose-collagen solution to give a total volume of 185 μl, incubating at 35° C. for 10 minutes and then initiating the reaction with 15 μl of purified collagenase. The rest of the assay was performed as described above.
(§4) To determine the mechanism of inhibition, the following equation was used [(Holmquist and Vallee, J. Biol. Chem. 249, 4601 (1974)] [formula] where Ao is the activity in the absence of inhibitor and AI is the activity in the presence of inhibitor.
Approximately 2.0 gms of synovial tissue were obtained from a patient undergoing synovectomy of the knee. All procedures were carried out in a laminar flow hood under aseptic conditions. The tissue was placed in 250 ml McCoys 5A (modified) medium containing 200 μg/ml gentamicin and stored overnight at 0° C. The next day the tissue was warmed to room temperature, cut into 0.25 cm pieces and added to 11 ml of serum-free DMEM, containing 4 mg/ml clostridial collagenase (Worthington). After incubating the mixture for one hour at room temperature, an equal volume of 0.25% trypsin was added and the incubation continued for an additional thirty minutes. The cells were spun down at 400×g for ten minutes, resuspended in 20 ml trypsin/EDTA (Gibco 10×) and incubated for 30 minutes with occasional mixing by drawing through a 25 ml pipet. The suspension was centrifuged and the pellet was washed two times with PBS:DMEM (1:1) containing 10% FBS. […]

[2] = target: T2, human skin fibroblast collagenase (Homo sapiens, UniProt P03956); assay: Collagenase inhibition test (14C-collagen assay), skin fibroblast collagenase; settings: 0.50 M NaCl, 0.01 M CaCl2, 0.05 M Tris, pH 7.5, 35° C.; Dixon plot, single substrate concentration 10 μM collagen
T2 construct: active collagenase isolated by this method consisted of two bands, a major species with molecular weight 45,000; host or cells: normal human skin fibroblasts CRL 1224 in SK Hepatoma conditioned medium
T2 sequence (P03956 100-469): T1 sequence (P03956 100-469)
Protocol: as §1, §2, §3, §4
One vial of normal skin fibroblasts was purchased (American Type Cell Culture CRL 1224), thawed at 37° C. and transferred to a 150 cm^2 T-flask. Fifty ml of DMEM containing 10% FBS were added and the cells incubated for one week at 37° C. under 5% CO2. The cells were then split into three T-flasks. When the flasks became overgrown with cells, normal media was replaced with SK Hepatoma conditioned media and changed twice a week. This media was stored and used as the starting material for collagenase isolation.
The other test compounds were assumed to inhibit by the same mechanism so that all studies were performed at only a single substrate concentration, 10μM, and the KI values were determined from the intersection with the abscissa.

[3] = target: T3, human collagenase isolated from skin fibroblasts and synovial cells (Homo sapiens, UniProt P03956); assay: Collagenase inhibition, (enzyme source not distinguished)
T3 construct: endogenous in cells; host or cells: human skin fibroblasts (CRL 1224) or primary human synovial cells; enzyme purified from conditioned medium
T3 sequence (P03956 100-469): T1 sequence (P03956 100-469)
Protocol: as §1, §2
as §3, with “above. […]” for “above.”

Ki [1] [µM]	Ki [2] [µM]	SMILES	further results
2600	1300	CC(NC(=O)OCc1ccccc1)C(=O)NCC(=O)NO (centres unmarked) [Z--Ala--Gly--NHOH]	–
960	600	O=C(CNC(=O)OCc1ccccc1)NO [Z--Gly--NHOH]	–
170	480	CC(C)CC(NC(=O)OCc1ccccc1)C(=O)NCC(=O)NO (centres unmarked) [Z--Leu--Gly--NHOH]	–
330	300	CC(C)C[C@H](NC(=O)OCc1ccccc1)C(=O)N[C@@H](CC(C)C)C(=O)NCC(=O)NO [Z--Leu--Leu--Gly--NHOH] (Cbz-Leu-Leu-Gly-{NHOH})	–
2000	3000	O=C(CNC(=O)CNC(=O)OCc1ccccc1)NO [Z--Gly--Gly--NHOH] (Cbz-Gly-Gly-{NHOH})	–
200	150	CSCCC(NC(=O)OCc1ccccc1)C(=O)NCC(=O)NO (centres unmarked) [Z--Met--Gly--NHOH]	–
–	–	CC(C)CC(C(=O)NO)C(=O)N[C@@H](C)C(=O)NCC(N)=O (stereo partly drawn) [Zincov, 2-(N-Hydroxycarboxamido)-4-methylpentanoyl-L-Ala-glycine amide]	Ki ([3]; human collagenase): 2000 µM
18000	> 1000	NCC(=O)NO [Gly--NHOH]	–
47	40	CC(C)C[C@H](NC(=O)[C@@H]1CCCN1C(=O)OCc1ccccc1)C(=O)NCC(=O)NO [Z--Pro--Leu--Gly--NHOH, N-Benzyloxycarbonyl-L-prolyl-L-leucylglycine Hydroxamic Acid] (Cbz-Pro-Leu-Gly-{NHOH})	mechanism of inhibition (Dixon plot) ([1]; three substrate concentrations, 3.9 μM, 1.3 μM and 0.7 μM collagen, FIG. 1): non-competitive inhibition; times more active than Zincov ([3]; estimated, ratio of KI values): 50 to 100 times; KI ([3]; human collagenase): 40 µM; times more effective than the corresponding Z--Leu--Leu--Gly--NHOH analog ([3]; ratio of KI values): ten
100	150	O=C(CNC(=O)C(Cc1ccccc1)NC(=O)OCc1ccccc1)NO (centres unmarked) [Z--Phe--Gly--NHOH]	–
